Like-named read-outs stand apart in the source and are kept apart here.
Assays:
Experiment in all cases: Kinase selectivity, scanMAX Kinase assay panel (DiscoverX), % control at 1 uM
Format in all cases: binding
[1] = molecular target: T1, scanMAX Kinase assay panel (Homo sapiens, UniProt O60285); conditions: ARK5; 1 uM; read-out: Percent Control (%)
T1 construct: purchased DiscoverX
T1 sequence (O60285 1-661): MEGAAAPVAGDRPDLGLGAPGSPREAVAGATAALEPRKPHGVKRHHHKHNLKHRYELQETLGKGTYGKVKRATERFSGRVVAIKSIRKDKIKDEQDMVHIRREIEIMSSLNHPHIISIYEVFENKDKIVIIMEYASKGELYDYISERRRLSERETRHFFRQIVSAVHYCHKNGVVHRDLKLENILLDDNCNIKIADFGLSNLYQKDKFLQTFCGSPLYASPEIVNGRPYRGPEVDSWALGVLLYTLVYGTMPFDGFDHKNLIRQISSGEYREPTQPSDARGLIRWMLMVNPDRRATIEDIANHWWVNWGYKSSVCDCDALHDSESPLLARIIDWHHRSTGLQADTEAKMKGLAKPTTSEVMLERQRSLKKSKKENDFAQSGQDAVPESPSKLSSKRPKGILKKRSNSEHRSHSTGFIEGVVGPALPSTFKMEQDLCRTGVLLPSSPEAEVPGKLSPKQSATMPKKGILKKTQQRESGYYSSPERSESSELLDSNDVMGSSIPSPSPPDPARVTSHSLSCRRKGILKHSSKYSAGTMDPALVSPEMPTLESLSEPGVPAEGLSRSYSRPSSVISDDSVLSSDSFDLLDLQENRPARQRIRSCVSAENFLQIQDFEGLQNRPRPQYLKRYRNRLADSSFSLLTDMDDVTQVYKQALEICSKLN
Outline: (§1)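 Read-out is percent of control, derived from the signal with compound relative to positive and negative controls: (compound − positive)/(negative − positive) × 100. Each enzyme received test drug at 1 uM in DMSO, and values under 35% count as active.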

[2] = molecular target: T2, scanMAX Kinase assay panel (Homo sapiens, UniProt P45984); conditions: JNK2; 1 uM; read-out: Percent Control (%)
T2 construct: purchased DiscoverX
T2 sequence (P45984 whole entry): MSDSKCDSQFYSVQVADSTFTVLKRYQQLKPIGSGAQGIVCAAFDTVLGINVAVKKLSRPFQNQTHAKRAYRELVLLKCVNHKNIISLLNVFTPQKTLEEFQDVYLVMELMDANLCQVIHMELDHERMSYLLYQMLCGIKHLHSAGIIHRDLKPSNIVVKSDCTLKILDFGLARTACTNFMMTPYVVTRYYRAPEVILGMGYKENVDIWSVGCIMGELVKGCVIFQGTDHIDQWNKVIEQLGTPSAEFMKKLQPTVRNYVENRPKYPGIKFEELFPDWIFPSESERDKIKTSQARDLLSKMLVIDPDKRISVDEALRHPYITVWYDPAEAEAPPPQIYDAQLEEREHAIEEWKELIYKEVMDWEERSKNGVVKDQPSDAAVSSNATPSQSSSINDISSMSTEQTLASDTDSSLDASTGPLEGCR
Outline: as §1

[3] = molecular target: T3, scanMAX Kinase assay panel (Homo sapiens, UniProt P21860); conditions: ERBB3; 1 uM; read-out: Percent Control (%)
T3 construct: purchased DiscoverX
T3 sequence (P21860 20-1342): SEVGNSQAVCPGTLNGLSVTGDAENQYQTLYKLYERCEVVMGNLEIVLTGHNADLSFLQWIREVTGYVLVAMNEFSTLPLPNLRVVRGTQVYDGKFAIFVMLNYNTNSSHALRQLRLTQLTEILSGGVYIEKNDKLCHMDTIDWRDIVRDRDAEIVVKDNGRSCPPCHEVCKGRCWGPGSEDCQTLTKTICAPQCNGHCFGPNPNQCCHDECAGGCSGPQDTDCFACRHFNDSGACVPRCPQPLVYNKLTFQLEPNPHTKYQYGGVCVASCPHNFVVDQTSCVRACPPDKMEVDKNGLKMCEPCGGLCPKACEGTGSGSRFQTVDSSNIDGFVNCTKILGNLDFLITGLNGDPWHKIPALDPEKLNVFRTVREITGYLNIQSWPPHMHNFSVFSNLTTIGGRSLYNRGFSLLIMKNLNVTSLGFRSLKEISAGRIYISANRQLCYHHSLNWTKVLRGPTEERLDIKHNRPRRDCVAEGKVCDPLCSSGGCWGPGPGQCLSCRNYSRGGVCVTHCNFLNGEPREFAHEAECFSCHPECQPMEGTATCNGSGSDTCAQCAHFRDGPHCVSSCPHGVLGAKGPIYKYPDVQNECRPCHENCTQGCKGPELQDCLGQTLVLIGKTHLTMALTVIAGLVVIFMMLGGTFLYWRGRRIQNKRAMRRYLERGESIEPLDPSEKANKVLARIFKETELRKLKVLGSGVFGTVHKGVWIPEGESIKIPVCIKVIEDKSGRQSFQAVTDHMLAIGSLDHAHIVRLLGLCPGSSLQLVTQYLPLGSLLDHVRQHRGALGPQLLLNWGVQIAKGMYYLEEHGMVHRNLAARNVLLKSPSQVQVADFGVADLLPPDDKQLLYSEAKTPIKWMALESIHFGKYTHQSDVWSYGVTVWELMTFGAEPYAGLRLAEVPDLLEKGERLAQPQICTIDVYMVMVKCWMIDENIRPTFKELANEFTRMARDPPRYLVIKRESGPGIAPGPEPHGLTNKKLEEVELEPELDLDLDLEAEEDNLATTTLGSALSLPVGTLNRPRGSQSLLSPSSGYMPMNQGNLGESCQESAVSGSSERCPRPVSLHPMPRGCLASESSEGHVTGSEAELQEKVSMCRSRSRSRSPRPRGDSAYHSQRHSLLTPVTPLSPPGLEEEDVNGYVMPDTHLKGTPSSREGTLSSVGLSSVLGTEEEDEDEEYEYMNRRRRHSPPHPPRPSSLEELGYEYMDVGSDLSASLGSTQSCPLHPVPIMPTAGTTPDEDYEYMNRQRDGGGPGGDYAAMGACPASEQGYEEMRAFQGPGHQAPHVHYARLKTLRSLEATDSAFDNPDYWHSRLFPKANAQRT
Outline: as §1

[4] = molecular target: T4, scanMAX Kinase assay panel (Homo sapiens, UniProt Q9H1R3); conditions: MYLK2; 1 uM; read-out: Percent Control (%)
T4 construct: purchased DiscoverX
T4 sequence (Q9H1R3 whole entry): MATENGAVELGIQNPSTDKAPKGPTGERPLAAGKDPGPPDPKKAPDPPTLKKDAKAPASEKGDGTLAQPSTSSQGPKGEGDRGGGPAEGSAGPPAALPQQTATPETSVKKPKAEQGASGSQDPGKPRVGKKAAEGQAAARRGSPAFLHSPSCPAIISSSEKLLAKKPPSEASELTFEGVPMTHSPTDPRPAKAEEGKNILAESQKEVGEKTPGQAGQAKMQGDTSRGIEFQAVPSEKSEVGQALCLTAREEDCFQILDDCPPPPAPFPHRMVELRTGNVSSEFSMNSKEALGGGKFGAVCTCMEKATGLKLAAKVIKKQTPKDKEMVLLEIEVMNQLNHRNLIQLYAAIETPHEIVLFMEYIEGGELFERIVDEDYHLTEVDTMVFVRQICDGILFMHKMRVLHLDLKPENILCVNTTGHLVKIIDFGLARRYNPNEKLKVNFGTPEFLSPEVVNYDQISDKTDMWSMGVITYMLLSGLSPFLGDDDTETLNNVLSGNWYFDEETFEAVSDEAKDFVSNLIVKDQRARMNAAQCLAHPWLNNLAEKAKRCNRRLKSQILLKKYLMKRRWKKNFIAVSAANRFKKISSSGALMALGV
Outline: as §1

[5] = molecular target: T5, scanMAX Kinase assay panel (Homo sapiens, UniProt P36888, D835H); conditions: FLT3 (D835H); 1 uM; read-out: Percent Control (%)
T5 construct: purchased DiscoverX
T5 sequence (P36888 27-993 D835H): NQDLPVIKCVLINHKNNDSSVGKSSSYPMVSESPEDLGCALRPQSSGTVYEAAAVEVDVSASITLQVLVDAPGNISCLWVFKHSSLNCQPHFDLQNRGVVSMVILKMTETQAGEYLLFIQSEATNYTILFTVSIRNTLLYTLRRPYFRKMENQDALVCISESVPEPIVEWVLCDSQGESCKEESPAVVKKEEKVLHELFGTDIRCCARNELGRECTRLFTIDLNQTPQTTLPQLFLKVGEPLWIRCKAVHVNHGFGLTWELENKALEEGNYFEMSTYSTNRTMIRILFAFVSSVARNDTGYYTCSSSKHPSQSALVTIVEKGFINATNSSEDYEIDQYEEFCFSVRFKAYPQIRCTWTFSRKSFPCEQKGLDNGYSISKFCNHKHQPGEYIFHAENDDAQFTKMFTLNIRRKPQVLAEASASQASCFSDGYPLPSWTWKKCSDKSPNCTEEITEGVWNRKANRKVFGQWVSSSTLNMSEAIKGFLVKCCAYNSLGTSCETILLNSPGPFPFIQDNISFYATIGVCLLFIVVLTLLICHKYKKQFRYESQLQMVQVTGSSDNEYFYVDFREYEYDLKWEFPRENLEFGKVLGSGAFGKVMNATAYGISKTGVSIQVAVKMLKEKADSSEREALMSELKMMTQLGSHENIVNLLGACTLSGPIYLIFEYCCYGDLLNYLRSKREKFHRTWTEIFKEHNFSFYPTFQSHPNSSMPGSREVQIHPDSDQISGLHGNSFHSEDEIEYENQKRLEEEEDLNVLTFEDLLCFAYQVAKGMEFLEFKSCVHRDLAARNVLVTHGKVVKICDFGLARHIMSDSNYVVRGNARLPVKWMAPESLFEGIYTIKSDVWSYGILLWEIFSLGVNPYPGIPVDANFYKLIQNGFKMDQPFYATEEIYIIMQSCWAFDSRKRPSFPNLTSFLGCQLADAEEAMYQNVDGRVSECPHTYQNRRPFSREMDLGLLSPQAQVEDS
Outline: as §1

[6] = molecular target: T6, scanMAX Kinase assay panel (Homo sapiens, UniProt P00519, H396P); conditions: 1 uM, read-out: Percent Control (%)
T6 construct: purchased DiscoverX
Outline: as §1

[7] = molecular target: T7, scanMAX Kinase assay panel (Homo sapiens, UniProt O95819); conditions: MAP4K4; 1 uM; read-out: Percent Control (%)
T7 construct: purchased DiscoverX
T7 sequence (O95819 whole entry): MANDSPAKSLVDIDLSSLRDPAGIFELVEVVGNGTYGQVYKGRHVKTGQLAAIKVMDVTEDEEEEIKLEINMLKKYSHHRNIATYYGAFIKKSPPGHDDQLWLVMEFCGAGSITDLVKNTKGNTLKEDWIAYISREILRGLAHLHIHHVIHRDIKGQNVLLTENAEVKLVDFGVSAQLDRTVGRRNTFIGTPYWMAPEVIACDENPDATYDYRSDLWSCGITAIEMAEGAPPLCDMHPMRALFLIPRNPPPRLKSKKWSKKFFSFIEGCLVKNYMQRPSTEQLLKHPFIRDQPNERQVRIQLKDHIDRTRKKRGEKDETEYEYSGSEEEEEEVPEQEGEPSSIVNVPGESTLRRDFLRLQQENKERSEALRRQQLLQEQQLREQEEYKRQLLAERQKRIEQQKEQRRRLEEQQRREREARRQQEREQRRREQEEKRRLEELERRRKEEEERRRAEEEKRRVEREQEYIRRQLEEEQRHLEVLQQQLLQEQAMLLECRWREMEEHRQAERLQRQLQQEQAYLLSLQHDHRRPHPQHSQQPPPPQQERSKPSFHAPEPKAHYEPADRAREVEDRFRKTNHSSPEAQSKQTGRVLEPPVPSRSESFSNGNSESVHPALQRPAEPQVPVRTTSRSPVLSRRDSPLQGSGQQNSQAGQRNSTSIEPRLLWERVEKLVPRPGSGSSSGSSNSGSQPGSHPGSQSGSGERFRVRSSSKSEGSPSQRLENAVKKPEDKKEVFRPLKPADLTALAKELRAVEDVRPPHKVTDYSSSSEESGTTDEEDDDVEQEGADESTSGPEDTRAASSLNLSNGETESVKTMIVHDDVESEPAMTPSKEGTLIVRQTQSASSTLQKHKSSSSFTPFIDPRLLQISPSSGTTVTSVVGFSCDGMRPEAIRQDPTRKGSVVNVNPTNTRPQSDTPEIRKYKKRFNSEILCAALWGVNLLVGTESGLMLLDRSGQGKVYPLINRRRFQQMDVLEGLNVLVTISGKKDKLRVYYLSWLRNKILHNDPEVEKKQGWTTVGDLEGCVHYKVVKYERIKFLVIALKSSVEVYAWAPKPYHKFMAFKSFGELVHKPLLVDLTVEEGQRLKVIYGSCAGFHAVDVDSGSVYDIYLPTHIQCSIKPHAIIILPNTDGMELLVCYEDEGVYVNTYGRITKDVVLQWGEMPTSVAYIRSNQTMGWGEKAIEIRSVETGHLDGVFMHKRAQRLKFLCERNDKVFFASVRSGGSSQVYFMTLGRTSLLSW
Outline: as §1

[8] = molecular target: T8, scanMAX Kinase assay panel (Homo sapiens, UniProt Q9UEE5); conditions: DRAK1; 1 uM; read-out: Percent Control (%)
T8 construct: purchased DiscoverX
T8 sequence (Q9UEE5 1-414): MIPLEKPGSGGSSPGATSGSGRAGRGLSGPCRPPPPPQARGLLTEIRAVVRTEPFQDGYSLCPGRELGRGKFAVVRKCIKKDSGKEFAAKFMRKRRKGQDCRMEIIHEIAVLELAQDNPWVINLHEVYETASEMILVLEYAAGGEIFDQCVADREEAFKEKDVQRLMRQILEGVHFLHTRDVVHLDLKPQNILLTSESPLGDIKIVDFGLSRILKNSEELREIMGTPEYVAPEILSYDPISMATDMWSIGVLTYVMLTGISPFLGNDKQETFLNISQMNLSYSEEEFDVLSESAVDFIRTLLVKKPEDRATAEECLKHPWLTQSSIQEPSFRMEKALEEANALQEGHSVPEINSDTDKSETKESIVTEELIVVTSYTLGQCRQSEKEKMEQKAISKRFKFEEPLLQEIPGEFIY
Outline: as §1

Question: For `Cc1ccc(C(=O)Nc2ccc(CN3CCN(C)CC3)c(C(F)(F)F)c2)cc1C#Cc1cnc2c(Nc3cnn(C)c3)cccn12` [Example 1, 4-methyl-3-((8-((1-methyl-1H-pyrazol-4-yl)amino)imidazo[1,2-a]pyridin-3-yl)ethynyl)-N-(4-((4-methylpiperazin-1-yl)methyl)-3-(trifluoromethyl)phenyl)benzamide], which remaining binding at 1 µM [1] is on record?
Answer: 99%

Question: And the remaining binding at 1 µM [2]?
Answer: 0%

Question: What about the remaining binding at 1 µM [3] of the same molecule?
Answer: 86%

Question: And the remaining binding at 1 µM [4]?
Answer: 6%

Question: What about the remaining binding at 1 µM [5] of the same molecule?
Answer: 1%

Question: What about the remaining binding at 1 µM ([6]; ABL1 (H396P)-nonphosphorylated) of the same molecule?
Answer: 1%

Question: What about the remaining binding at 1 µM ([6]; ABL1 (H396P)-phosphorylated) of the same molecule?
Answer: 0%

Question: And the remaining binding at 1 µM [7]?
Answer: 1%

Question: And the remaining binding at 1 µM [8]?
Answer: 98%

Question: What does the source list for `Cc1cn(-c2cc(NC(=O)c3ccc(C)c(C#Cc4cnc5c(Nc6cnn(C)c6)cccn45)c3)cc(C(F)(F)F)c2)cn1` [Example 12, 4-methyl-N-(3-(4-methyl-1H-imidazol-1-yl)-5-(trifluoromethyl)phenyl)-3-((8-((1-methyl-1H-pyrazol-4-yl)amino)imidazo[1,2-a]pyridin-3-yl)ethynyl)benzamide]?
Answer: remaining binding at 1 µM [1]: 100%; remaining binding at 1 µM [2]: 66%; remaining binding at 1 µM [3]: 98%; remaining binding at 1 µM [4]: 40%; remaining binding at 1 µM [5]: 10%; remaining binding at 1 µM ([6]; ABL1 (H396P)-nonphosphorylated): 0%; remaining binding at 1 µM ([6]; ABL1 (H396P)-phosphorylated): 10%; remaining binding at 1 µM [7]: 4%; remaining binding at 1 µM [8]: 100%

Question: `Cc1ccc(NC(=O)C2(C(=O)Nc3ccc(F)cc3)CC2)cc1C#Cc1cnc2c(Nc3cnn(C(C)C)c3)cccn12` [Example 78] was tested. Which remaining binding at 1 µM [1] did it give?
Answer: 94%

Question: What about the remaining binding at 1 µM [2] of the same molecule?
Answer: 100%

Question: And the remaining binding at 1 µM [3]?
Answer: 99%

Question: What about the remaining binding at 1 µM [4] of the same molecule?
Answer: 100%

Question: And the remaining binding at 1 µM [5]?
Answer: 95%

Question: What about the remaining binding at 1 µM ([6]; ABL1 (H396P)-nonphosphorylated) of the same molecule?
Answer: 4%

Question: What about the remaining binding at 1 µM ([6]; ABL1 (H396P)-phosphorylated) of the same molecule?
Answer: 64%

Question: And the remaining binding at 1 µM [7]?
Answer: 99%

Question: And the remaining binding at 1 µM [8]?
Answer: 100%

Source: patent US10870647B2, “Imidazopyridine derivative, method for preparing same, and pharmaceutical composition containing same as active ingredient for preventing or treating cancer” (DAEGU-GYEONGBUK MEDICAL INNOVATION FOUNDATION, priority 2016, dated 2020)
